Key:
[1] = molecular target: Casein kinase I isoform delta (Homo sapiens, UniProt P48730); assay: Selectivity interaction (KinomeScan (DiscoverX)) EUB0001079a CSNK1D; conditions: at 1 µM
[2] = molecular target: T1, Serine/threonine-protein kinase D2 (Homo sapiens) (UniProt Q9BZL6); assay: Selectivity interaction (ActivX KiNativ screen (kinase selectivity in THP-1 cell lysates)) EUB0000639a PRKD2; format: subcellular; conditions: lysate
T1 sequence (whole entry): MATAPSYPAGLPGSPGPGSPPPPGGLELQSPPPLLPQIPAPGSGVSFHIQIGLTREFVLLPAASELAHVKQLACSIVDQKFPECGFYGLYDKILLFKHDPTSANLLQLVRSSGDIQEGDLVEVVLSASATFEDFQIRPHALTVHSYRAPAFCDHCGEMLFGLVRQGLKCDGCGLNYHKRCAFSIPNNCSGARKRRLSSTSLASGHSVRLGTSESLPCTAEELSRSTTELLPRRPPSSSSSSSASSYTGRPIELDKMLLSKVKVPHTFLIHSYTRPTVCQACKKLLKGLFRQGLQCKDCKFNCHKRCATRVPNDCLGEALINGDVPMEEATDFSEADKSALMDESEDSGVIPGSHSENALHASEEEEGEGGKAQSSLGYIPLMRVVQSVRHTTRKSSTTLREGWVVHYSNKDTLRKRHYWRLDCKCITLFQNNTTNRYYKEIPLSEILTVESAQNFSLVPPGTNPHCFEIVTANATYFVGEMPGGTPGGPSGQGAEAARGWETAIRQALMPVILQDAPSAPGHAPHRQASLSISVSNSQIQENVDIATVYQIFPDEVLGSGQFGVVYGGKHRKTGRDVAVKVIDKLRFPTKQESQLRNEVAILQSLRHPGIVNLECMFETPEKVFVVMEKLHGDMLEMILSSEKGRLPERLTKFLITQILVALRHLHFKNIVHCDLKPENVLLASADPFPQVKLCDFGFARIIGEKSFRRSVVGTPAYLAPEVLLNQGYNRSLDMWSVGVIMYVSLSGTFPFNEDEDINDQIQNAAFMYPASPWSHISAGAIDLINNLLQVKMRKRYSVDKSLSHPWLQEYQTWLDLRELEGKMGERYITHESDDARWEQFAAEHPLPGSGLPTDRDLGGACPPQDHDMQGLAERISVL

[3] = molecular target: T2, Interleukin-1 receptor-associated kinase 3 (Homo sapiens) (UniProt Q9Y616); assay: Selectivity interaction (Ambit KINOMEscan and KiNATiv profiling in Jurkat cells) EUB0000090b IRAK3; format: cell-based; conditions: at 1 µM
T2 sequence (whole entry): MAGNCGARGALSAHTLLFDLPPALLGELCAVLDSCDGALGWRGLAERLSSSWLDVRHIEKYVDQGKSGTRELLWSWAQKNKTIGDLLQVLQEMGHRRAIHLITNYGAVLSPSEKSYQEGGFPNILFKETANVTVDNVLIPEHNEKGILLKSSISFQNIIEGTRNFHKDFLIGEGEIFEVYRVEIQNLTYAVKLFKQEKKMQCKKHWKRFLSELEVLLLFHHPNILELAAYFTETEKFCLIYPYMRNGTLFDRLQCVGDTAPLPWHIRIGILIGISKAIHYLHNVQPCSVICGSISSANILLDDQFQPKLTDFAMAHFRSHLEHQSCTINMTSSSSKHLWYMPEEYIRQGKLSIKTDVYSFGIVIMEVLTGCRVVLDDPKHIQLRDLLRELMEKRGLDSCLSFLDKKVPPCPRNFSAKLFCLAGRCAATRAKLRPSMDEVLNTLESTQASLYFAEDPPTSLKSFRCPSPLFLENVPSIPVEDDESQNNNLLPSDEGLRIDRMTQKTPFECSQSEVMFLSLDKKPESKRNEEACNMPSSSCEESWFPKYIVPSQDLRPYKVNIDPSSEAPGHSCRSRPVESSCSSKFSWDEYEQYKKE

[4] = molecular target: T3, Ephrin type-A receptor 1 (Homo sapiens) (UniProt P21709); assay: Selectivity interaction (KinomeScan (DiscoverX)) EUB0000655a EPHA1; conditions: at 10 µM
T3 sequence (whole entry): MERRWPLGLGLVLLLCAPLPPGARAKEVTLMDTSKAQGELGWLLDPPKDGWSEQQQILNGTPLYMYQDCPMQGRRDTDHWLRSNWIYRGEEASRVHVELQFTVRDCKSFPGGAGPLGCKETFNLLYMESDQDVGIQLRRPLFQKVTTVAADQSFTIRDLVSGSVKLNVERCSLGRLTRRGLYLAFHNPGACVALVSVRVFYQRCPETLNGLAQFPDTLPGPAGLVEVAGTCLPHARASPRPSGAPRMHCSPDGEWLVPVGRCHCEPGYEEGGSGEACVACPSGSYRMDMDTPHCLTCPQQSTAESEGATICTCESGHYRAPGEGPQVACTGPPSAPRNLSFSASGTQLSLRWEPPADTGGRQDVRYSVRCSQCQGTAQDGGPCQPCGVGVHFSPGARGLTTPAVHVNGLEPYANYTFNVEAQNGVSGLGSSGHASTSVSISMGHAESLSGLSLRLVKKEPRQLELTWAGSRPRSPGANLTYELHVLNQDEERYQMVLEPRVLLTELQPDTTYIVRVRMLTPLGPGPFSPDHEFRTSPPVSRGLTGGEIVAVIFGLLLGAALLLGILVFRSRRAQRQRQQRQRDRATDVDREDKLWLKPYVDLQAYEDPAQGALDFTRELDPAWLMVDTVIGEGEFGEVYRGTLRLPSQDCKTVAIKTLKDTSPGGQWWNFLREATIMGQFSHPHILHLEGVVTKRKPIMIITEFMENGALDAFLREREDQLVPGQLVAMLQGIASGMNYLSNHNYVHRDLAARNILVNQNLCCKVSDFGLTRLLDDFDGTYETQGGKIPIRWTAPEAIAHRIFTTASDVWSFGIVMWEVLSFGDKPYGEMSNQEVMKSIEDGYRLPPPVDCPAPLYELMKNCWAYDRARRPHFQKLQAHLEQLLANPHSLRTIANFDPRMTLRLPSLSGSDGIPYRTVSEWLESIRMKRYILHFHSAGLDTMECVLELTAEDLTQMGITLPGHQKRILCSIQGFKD

[5] = molecular target: Tyrosine-protein kinase receptor UFO (Homo sapiens) (UniProt P30530); assay: Selectivity interaction (KinomeScan (DiscoverX)) EUB0000655a AXL; conditions: at 10 µM
Chain of Tyrosine-protein kinase receptor UFO (Homo sapiens) (P30530 whole entry): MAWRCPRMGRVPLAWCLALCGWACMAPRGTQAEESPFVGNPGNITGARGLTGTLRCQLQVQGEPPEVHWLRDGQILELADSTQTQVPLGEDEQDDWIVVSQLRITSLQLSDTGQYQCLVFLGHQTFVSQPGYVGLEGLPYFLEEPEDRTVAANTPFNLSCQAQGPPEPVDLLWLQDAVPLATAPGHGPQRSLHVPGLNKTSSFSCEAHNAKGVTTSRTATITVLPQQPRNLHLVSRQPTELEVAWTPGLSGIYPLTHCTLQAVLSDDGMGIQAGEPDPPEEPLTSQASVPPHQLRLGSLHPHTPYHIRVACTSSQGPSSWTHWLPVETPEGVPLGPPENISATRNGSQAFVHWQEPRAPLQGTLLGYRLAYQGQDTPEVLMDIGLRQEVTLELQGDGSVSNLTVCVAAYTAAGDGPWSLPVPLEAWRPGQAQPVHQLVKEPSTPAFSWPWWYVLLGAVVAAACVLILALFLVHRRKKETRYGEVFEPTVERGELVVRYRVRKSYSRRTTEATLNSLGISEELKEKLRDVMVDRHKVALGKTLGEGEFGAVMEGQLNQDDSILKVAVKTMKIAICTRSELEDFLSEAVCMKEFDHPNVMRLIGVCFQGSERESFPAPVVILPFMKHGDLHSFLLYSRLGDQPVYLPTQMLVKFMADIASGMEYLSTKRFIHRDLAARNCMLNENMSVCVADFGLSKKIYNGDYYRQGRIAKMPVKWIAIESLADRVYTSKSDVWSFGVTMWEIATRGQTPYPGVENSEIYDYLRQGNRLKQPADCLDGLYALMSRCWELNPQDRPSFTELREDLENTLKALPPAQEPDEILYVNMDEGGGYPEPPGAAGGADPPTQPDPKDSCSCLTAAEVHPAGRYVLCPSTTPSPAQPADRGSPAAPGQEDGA

[6] = molecular target: Mitogen-activated protein kinase 3 (Homo sapiens, UniProt P27361); assay: Selectivity interaction (KinomeScan (DiscoverX)) EUB0000695a MAPK3; conditions: at 100 nM
Chain of Mitogen-activated protein kinase 3 (P27361 whole entry): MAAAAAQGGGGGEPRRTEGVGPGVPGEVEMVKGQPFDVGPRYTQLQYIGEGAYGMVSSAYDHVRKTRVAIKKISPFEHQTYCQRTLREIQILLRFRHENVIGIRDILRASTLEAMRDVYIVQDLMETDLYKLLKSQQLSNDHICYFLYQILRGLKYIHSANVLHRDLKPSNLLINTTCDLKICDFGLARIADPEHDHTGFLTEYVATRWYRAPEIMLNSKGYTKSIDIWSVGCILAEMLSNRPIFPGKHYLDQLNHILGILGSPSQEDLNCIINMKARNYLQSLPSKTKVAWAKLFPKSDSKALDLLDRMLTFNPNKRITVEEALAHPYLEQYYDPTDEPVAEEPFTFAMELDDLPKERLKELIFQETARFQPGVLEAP

[7] = molecular target: Cyclin-dependent kinase 15 (Homo sapiens) (UniProt Q96Q40); assay: Selectivity interaction (KinomeScan (DiscoverX)) EUB0000695a CDK15; conditions: at 100 nM
Chain of Cyclin-dependent kinase 15 (Homo sapiens) (Q96Q40 whole entry): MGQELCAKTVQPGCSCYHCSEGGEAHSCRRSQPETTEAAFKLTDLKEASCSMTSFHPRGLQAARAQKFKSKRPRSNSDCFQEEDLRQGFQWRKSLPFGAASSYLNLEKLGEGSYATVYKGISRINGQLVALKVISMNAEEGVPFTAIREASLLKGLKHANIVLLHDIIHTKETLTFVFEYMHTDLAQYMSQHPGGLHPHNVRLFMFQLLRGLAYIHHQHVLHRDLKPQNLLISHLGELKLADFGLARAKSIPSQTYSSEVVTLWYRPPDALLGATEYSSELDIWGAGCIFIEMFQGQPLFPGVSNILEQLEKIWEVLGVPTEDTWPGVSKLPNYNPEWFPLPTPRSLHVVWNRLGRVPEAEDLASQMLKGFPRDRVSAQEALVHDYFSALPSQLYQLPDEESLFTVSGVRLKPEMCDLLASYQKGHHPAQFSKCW

[8] = molecular target: Receptor tyrosine-protein kinase erbB-4 (Homo sapiens, UniProt Q15303); assay: Selectivity interaction (Kinase panel (Z-LYTE Assay)) EUB0001632a ERBB4; conditions: at 10 µM
Chain of Receptor tyrosine-protein kinase erbB-4 (Q15303 whole entry): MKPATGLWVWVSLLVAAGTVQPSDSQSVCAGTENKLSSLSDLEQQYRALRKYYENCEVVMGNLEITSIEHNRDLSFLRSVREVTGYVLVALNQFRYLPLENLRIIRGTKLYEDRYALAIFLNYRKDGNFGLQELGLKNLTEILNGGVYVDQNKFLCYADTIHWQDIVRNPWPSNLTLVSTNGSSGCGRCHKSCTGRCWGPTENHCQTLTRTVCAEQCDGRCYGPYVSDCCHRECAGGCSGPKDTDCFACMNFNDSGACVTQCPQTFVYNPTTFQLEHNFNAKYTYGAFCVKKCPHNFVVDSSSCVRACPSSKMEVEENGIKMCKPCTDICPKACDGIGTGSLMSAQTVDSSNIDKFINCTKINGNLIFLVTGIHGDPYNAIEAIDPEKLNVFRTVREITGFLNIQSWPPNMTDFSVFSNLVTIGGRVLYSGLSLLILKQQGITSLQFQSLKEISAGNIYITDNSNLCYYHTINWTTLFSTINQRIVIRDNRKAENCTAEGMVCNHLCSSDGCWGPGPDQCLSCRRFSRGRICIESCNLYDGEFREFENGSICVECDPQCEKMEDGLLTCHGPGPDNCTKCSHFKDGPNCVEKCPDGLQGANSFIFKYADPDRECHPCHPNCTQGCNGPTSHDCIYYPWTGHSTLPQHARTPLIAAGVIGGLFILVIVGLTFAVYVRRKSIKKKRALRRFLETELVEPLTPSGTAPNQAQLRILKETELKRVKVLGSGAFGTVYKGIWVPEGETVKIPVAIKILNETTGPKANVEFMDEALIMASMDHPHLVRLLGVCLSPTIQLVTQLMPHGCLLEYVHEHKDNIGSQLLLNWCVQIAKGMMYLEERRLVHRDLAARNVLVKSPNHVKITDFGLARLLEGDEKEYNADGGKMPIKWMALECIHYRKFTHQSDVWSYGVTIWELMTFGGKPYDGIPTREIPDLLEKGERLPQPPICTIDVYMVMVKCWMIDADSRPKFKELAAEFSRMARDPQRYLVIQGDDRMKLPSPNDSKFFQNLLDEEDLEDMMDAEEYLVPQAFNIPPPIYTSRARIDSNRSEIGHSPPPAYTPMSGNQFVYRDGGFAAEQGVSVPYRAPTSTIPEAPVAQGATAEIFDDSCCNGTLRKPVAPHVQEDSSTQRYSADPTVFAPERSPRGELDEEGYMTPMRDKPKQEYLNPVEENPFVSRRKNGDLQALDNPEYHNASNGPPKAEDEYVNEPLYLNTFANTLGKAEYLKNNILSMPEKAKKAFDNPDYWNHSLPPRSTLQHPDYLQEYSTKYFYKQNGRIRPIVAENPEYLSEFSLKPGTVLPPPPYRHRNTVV

Chain of Casein kinase I isoform delta (P48730 whole entry, looked up, canonical isoform): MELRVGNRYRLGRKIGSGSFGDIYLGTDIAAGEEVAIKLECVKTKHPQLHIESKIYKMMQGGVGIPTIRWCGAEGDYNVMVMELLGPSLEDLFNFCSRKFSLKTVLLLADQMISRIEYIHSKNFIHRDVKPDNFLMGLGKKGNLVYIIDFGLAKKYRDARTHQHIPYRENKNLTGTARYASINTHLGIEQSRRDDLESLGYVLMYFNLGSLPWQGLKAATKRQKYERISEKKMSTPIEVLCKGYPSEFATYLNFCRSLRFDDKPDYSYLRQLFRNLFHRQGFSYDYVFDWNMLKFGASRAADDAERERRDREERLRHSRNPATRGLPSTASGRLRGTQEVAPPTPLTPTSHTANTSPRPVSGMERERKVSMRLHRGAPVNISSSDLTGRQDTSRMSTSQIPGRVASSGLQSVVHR

Nc1cnc(N2CCc3cc(S(=O)(=O)Nc4c(F)cc(Cl)cc4F)cc(N4CCCC4=O)c32)nc1 [TP-020n]
% of control [1]: 98%

CC[C@@H]1[C@H](F)C(=O)N[C@@H]1COc1nccc2cc(C(N)=O)c(OC)cc12 [ZIMLOVISERTIB]
% of inhibition ([2]; at 0.01 µM): 1.1% | % of inhibition ([2]; at 0.04 µM): 12.3% | % of inhibition ([2]; at 0.2 µM): 6.8% | % of inhibition ([2]; at 1 µM): 11.9% | % of inhibition ([2]; at 5 µM): 5.6%

CN(C)C/C=C/C(=O)Nc1ccc(C(=O)N2CCCC(Nc3ncc(Cl)c(-c4c[nH]c5ccccc45)n3)C2)cc1 (configuration not stated)
% of control [3]: 68%

CN(C)CCOc1ccc(-c2nc(-c3ccncc3)c(-c3ccc4c(c3)CC/C4=N\O)[nH]2)cc1
% of control [4]: 91% | % of control [5]: 78%

Cc1cc(F)c(C(=O)Nc2cccc(-c3nncn3C(C)C)n2)cc1-n1cnc(C2CC2)c1
% of control [6]: 97% | % of control [7]: 100%

Cn1cc(-n2cnc3c(NCc4nc5cc(Cl)c(Cl)cc5[nH]4)nc(N4CCOCC4)nc32)cn1
% of control [8]: -13.3%

Reference: ChEMBL document CHEMBL5465560, “Selectivity Literature for EUbOPEN Chemogenomic Library” (2024)
